Assay results: paper PMC11576293, “New series of 4,6-diaryl pyrimidines: facile synthesis and antiproliferative activity as dual EGFR/VEGFR-2 inhibitors” (Frontiers in Chemistry, 2024)

How the values were obtained:
Type in all cases: cell-based
[1] = test system: MCF7; assay: NCI-60 single-dose screen; conditions: Homo sapiens, single dose 10 µM, '-' = no inhibition, read-out: % Growth Inhibition
Protocol: (§1) The National Cancer Institute’s Developmental Therapeutic Program (www.dtp.nci.nih.gov) has tested compounds 9–29 (except compounds 21 and 22) against 60 cancer cell lines from nine types (leukemia, lung, colon, CNS, melanoma, ovarian, renal, prostate, and breast cancer) at a single dose (10 μM) ([El-Sherief et al., 2018]). […] The most sensitive cells included leukemia (SR, K-562, and MOLT-4), lung (NCI-H522, […], and EKVX), breast (MCF-7 and T-47D), colon (HCT-15 and HT-29), and ovarian (NCI/ADR-RES).
(§2) The National Cancer Institute’s Developmental Therapeutic Program (www.dtp.nci.nih.gov) evaluated compounds 9–29 (excluding 21 and 22) against 60 cancer cell lines from nine categories (leukemia, lung, colon, CNS, melanoma, ovarian, renal, prostate, and breast cancer) at a single dose (10 μM) ([El-Sherief et al., 2018]). See Supplementary Material A1 for more details.

[2] = test system: SN12C; assay: NCI-60 single-dose screen; conditions: Homo sapiens, single dose 10 µM, '-' = no inhibition, read-out: % Growth Inhibition
Protocol: as §1, §2

[3] = test system: SNB-75; assay: NCI-60 single-dose screen; conditions: Homo sapiens, single dose 10 µM, '-' = no inhibition, read-out: % Growth Inhibition
Protocol: as §1, §2

[4] = test system: OVCAR-3; assay: NCI-60 single-dose screen; conditions: Homo sapiens, single dose 10 µM, '-' = no inhibition, read-out: % Growth Inhibition
Protocol: as §1, §2

[5] = test system: MALME-3M; assay: NCI-60 single-dose screen; conditions: Homo sapiens, single dose 10 µM, '-' = no inhibition, read-out: % Growth Inhibition
Protocol: as §1, §2

[6] = test system: OVCAR-8; assay: NCI-60 single-dose screen; conditions: Homo sapiens, single dose 10 µM, '-' = no inhibition, read-out: % Growth Inhibition
Protocol: as §1, §2

[7] = test system: SR; assay: NCI-60 single-dose screen; conditions: Homo sapiens, single dose 10 µM, '-' = no inhibition, read-out: % Growth Inhibition
Protocol: as §1, §2

[8] = test system: MDA-MB231/ATCC; assay: NCI-60 single-dose screen; conditions: Homo sapiens, MDA-MB-231, single dose 10 µM, '-' = no inhibition, read-out: % Growth Inhibition
Protocol: as §1, §2

[9] = test system: HCT-116; assay: NCI-60 single-dose screen; conditions: Homo sapiens, single dose 10 µM, '-' = no inhibition, read-out: % Growth Inhibition
Protocol: as §1, §2

[10] = test system: COLO 205; assay: NCI-60 single-dose screen; conditions: Homo sapiens, single dose 10 µM, '-' = no inhibition, read-out: % Growth Inhibition
Protocol: as §1, §2

[11] = test system: EKVX; assay: NCI-60 single-dose screen; conditions: Homo sapiens, single dose 10 µM, '-' = no inhibition, read-out: % Growth Inhibition
Protocol: as §1, §2

[12] = test system: SF-539; assay: NCI-60 single-dose screen; conditions: Homo sapiens, single dose 10 µM, '-' = no inhibition, read-out: % Growth Inhibition
Protocol: as §1, §2

[13] = test system: UO-31; assay: NCI-60 single-dose screen; conditions: Homo sapiens, single dose 10 µM, '-' = no inhibition, read-out: % Growth Inhibition
Protocol: as §1, §2

[14] = test system: PC-3; assay: NCI-60 single-dose screen; conditions: Homo sapiens, single dose 10 µM, '-' = no inhibition, read-out: % Growth Inhibition
Protocol: as §1, §2

[15] = test system: A549/ATCC; assay: NCI-60 single-dose screen; conditions: Homo sapiens, single dose 10 µM, '-' = no inhibition, read-out: % Growth Inhibition
Protocol: as §1, §2

[16] = test system: UACC-257; assay: NCI-60 single-dose screen; conditions: Homo sapiens, single dose 10 µM, '-' = no inhibition, read-out: % Growth Inhibition
Protocol: as §1, §2

[17] = test system: HOP-92; assay: NCI-60 single-dose screen; conditions: Homo sapiens, single dose 10 µM, '-' = no inhibition, read-out: % Growth Inhibition
Protocol: as §1, §2

[18] = test system: BT-549; assay: NCI-60 single-dose screen; conditions: Homo sapiens, single dose 10 µM, '-' = no inhibition, read-out: % Growth Inhibition
Protocol: as §1, §2

[19] = test system: IGROV1; assay: NCI-60 single-dose screen; conditions: Homo sapiens, IGROV-1, single dose 10 µM, '-' = no inhibition, read-out: % Growth Inhibition
Protocol: as §1, §2

[20] = test system: SNB-19; assay: NCI-60 single-dose screen; conditions: Homo sapiens, single dose 10 µM, '-' = no inhibition, read-out: % Growth Inhibition
Protocol: as §1, §2

[21] = test system: MDA-MB-435; assay: NCI-60 single-dose screen; conditions: Homo sapiens, single dose 10 µM, '-' = no inhibition, read-out: % Growth Inhibition
Protocol: as §1, §2

[22] = test system: HS 578T; assay: NCI-60 single-dose screen; conditions: Homo sapiens, single dose 10 µM, '-' = no inhibition, read-out: % Growth Inhibition
Protocol: as §1, §2

[23] = test system: RPMI-8226; assay: NCI-60 single-dose screen; conditions: Homo sapiens, single dose 10 µM, '-' = no inhibition, read-out: % Growth Inhibition
Protocol: as §1, §2

[24] = test system: NCI/ADR-RES; assay: NCI-60 single-dose screen; conditions: Homo sapiens, single dose 10 µM, '-' = no inhibition, read-out: % Growth Inhibition
Protocol: as §1, §2

[25] = test system: RXF 393; assay: NCI-60 single-dose screen; conditions: Homo sapiens, single dose 10 µM, '-' = no inhibition, read-out: % Growth Inhibition
Protocol: as §1, §2

[26] = Cell viability assay (MTT) on normal cells; conditions: human, MCF-10A normal mammary gland epithelial cells, 4 days incubation
[27] = test system: four cancer cell lines (A-549, MCF-7, Panc-1, HT-29); assay: Antiproliferative assay, average over four cancer cell lines; conditions: Homo sapiens; average of the four cancer cell lines; read-out: Average IC50 (GI50)
Excerpt: Table 2 presents the four cancer cell lines’ median inhibitory concentration (IC50) and GI50 (average IC50) values.
The IC50 values were derived from dose-response tests. The reported data are derived from at least two independent studies, each comprising three replicates per concentration. See Supplementary Material A1 for more details.

| Compound | inhibition at 10 µM [1] [%] | inhibition at 10 µM [2] [%] | inhibition at 10 µM [3] [%] | inhibition at 10 µM [4] [%] | inhibition at 10 µM [5] [%] | inhibition at 10 µM [6] [%] | inhibition at 10 µM [7] [%] | inhibition at 10 µM [8] [%] | inhibition at 10 µM [9] [%] | inhibition at 10 µM [10] [%] | inhibition at 10 µM [11] [%] | inhibition at 10 µM [12] [%] | inhibition at 10 µM [13] [%] | inhibition at 10 µM [14] [%] | inhibition at 10 µM [15] [%] | inhibition at 10 µM [16] [%] | inhibition at 10 µM [17] [%] | inhibition at 10 µM [18] [%] | inhibition at 10 µM [19] [%] | inhibition at 10 µM [20] [%] | also measured |
| --- | --- | --- | --- | --- | --- | --- | --- | --- | --- | --- | --- | --- | --- | --- | --- | --- | --- | --- | --- | --- | --- |
| COc1ccc(-c2cc(-c3ccc(Cl)cc3)nc(SC(C)C)n2)cc1OC [Compound 26, 4-(4-Chlorophenyl)-2-(isopropylthio)-6-(3,4-dimethoxyphenyl)pyrimidine] | 18.1 | 8.05 | < 0 | < 0 | < 0 | 4.2 | 12.6 | 4.5 | 2.84 | < 0 | 4.59 | < 0 | 15.2 | < 0 | 0.02 | 0.69 | < 0 | < 0 | < 0 | 3.77 | inhibition at 10 µM [21]: 1.25%; inhibition at 10 µM [22]: < 0%; inhibition at 10 µM [23]: 0.53%; inhibition at 10 µM [24]: < 0%; inhibition at 10 µM [25]: < 0%; viability at 4 days, 50 µM [26]: 90%; IC50 [27]: 0.041 µM |
| COc1ccc(-c2cc(-c3ccc(Cl)cc3)nc(SCc3ccccc3)n2)cc1 [Compound 14, 2-(Benzylthio)-4-(4-chlorophenyl)-6-(4-methoxyphenyl)pyrimidine] | < 0 | 10.4 | < 0 | 6.22 | < 0 | < 0 | 10.2 | < 0 | < 0 | 10.3 | 2.76 | < 0 | < 0 | 20.7 | 2.08 | < 0 | < 0 | < 0 | < 0 | < 0 | inhibition at 10 µM [21]: 3.68%; inhibition at 10 µM [22]: < 0%; inhibition at 10 µM [23]: < 0%; inhibition at 10 µM [24]: < 0%; inhibition at 10 µM [25]: < 0%; viability at 4 days, 50 µM [26]: 90%; IC50 [27]: 0.029 µM |
| C=CCSc1nc(-c2ccc(Cl)cc2)cc(-c2ccc(OC)cc2)n1 [Compound 13, 2-(Allylthio)-4-(4-chlorophenyl)-6-(4-methoxyphenyl)pyrimidine] | < 0 | 6.62 | < 0 | < 0 | < 0 | < 0 | 19.9 | < 0 | 5.47 | < 0 | 2.11 | < 0 | 18.9 | 1.15 | < 0 | < 0 | < 0 | < 0 | < 0 | 6.79 | inhibition at 10 µM [21]: 5.34%; inhibition at 10 µM [22]: < 0%; inhibition at 10 µM [23]: 4.91%; inhibition at 10 µM [24]: 6.28%; inhibition at 10 µM [25]: 0.35%; viability at 4 days, 50 µM [26]: 90%; IC50 [27]: 0.066 µM |
| CCSc1nc(-c2ccc(Cl)cc2)cc(-c2ccc(OC)c(OC)c2)n1 [Compound 24, 4-(4-Chlorophenyl)-2-(ethylthio)-6-(3,4-dimethoxyphenyl)pyrimidine] | 18.5 | 22.8 | 6.37 | < 0 | < 0 | 6.83 | 39.6 | 16.9 | 30 | 35.4 | 20.4 | 7.9 | 25.8 | 26.4 | 23 | 13.5 | 1.94 | < 0 | < 0 | 3.01 | inhibition at 10 µM [21]: 19.7%; inhibition at 10 µM [22]: 20.6%; inhibition at 10 µM [23]: 26.4%; inhibition at 10 µM [24]: 17.5%; inhibition at 10 µM [25]: 23.5%; viability at 4 days, 50 µM [26]: 91%; IC50 [27]: 0.031 µM |
| CCSc1nc(-c2ccc(Cl)cc2)cc(-c2ccc(OC)cc2)n1 [Compound 10, 4-(4-Chlorophenyl)-2-(ethylthio)-6-(4-methoxyphenyl)pyrimidine] | 25.5 | 0.46 | 3 | < 0 | < 0 | < 0 | 19.4 | < 0 | 4.3 | < 0 | 7.83 | < 0 | 10.5 | < 0 | 11.2 | < 0 | < 0 | < 0 | < 0 | 0.21 | inhibition at 10 µM [21]: 8.38%; inhibition at 10 µM [22]: 2.58%; inhibition at 10 µM [23]: 6.56%; inhibition at 10 µM [24]: 1.42%; inhibition at 10 µM [25]: < 0%; viability at 4 days, 50 µM [26]: 90%; IC50 [27]: 0.076 µM |
